Read-outs that look alike come from different tables or passages of the source.
Experiments:
[1] = compound 150 µM, rat liver homogenate, 37 °C; cited from earlier work
[2] = Spectrophotometric methylene blue H2S release in phosphate buffer with or without thiols; details: 37 °C, with or without L-cysteine or glutathione
MDA-MB-231 = assay: MTT antiproliferative assay, MDA-MB-231; assay type: cell-based; details: Homo sapiens, normoxic conditions, 72 h
Experimental: (§1) These cell lines were cultured as monolayers in Dulbecco’s Modified Eagle’s Medium (DMEM) supplemented with 10% FBS, 2 mM l-glutamine, 100 U/mL penicillin, and 100 µg/mL streptomycin sulfate. […] The cells were sub-cultured using trypsin/EDTA solution, counted with a hemocytometer, and plated on 96-well plates (5000 cells/well), allowing them to form a semi-confluent monolayer overnight. […] DMSO (100 µL/well) was then added to dissolve the formazan crystals with shaking for 10 min, after which the absorb absorbance was read at 590 nm against no-cell blanks using a FLuo Star Optima microplate reader (BMG technologies, Ortenberg, Germany). Cell proliferation was calculated by comparing the OD values of the DMSO control wells with those of the samples, represented as % proliferation relative to the control.

hCA XII [3] = details: stopped-flow CO2 hydrase assay, mean of three assays; cited from earlier work
hCA IX [4] = assay: Stopped-flow CO2 hydrase inhibition assay, hCA IX; assay type: biochemical, human; details: ratio of KIs
Experimental: (§2) An Applied Photophysics stopped-flow instrument (Applied Photophysics Ltd, Leatherhead, UK) was used for assaying the CA-catalyzed CO2 hydration activity. Phenol red (at a concentration of 0.2 mM) was used as an indicator, working at the absorbance maximum of 557 nm, with 20 mM Hepes (pH 7.5) as a buffer and 20 mM Na2SO4 for maintaining constant the ionic strength, following the initial rates of the CA-catalyzed CO2 hydration reaction for a period of 10−100 s. The CO2 concentrations ranged from 1.7 to 17 mM for the determination of the kinetic parameters and inhibition constants. For each inhibitor, at least six traces of the initial 5−10% of the reaction were used for determining the initial velocity. The uncatalyzed rates were determined in the same manner and subtracted from the total observed rates. Stock solutions of inhibitor (0.1 mM) were prepared in distilled−deionized water and dilutions up to 0.01 nM were made thereafter with the assay buffer. Inhibitor and enzyme solutions were preincubated together for 15 min at room temperature before the assay to allow for the formation of the E−I complex. The inhibition constants were obtained by nonlinear least-squares methods using Prism 7 (GraphPad Software, La Jolla, CA, USA) and the Cheng−Prusoff equation and represent the mean of at least three different determinations. The enzyme concentrations were in the range of 3–11 nM. All hCA isoforms were recombinant ones obtained in-house.

hCA I = details: stopped-flow CO2 hydrase assay, mean of three assays; cited from earlier work
hCA II = details: stopped-flow CO2 hydrase assay, mean of three assays; cited from earlier work
hCA IX [5] = details: stopped-flow CO2 hydrase assay, mean of three assays; cited from earlier work
HCT-116 = assay: MTT antiproliferative assay, HCT-116 (normoxia and CoCl2-induced hypoxia); assay type: cell-based, human; details: HCT-116; for IC50: Homo sapiens, MTT, 72 h
Experimental: as §1

hCA XII [6] = assay: Stopped-flow CO2 hydrase inhibition assay, hCA XII; assay type: biochemical, human; details: ratio of KIs
Experimental: as §2

hCA IV [7] = assay: Stopped-flow CO2 hydrase inhibition assay, hCA IV; assay type: biochemical, human; details: ratio of KIs
Experimental: as §2

A549 = assay: MTT antiproliferative assay, A549; assay type: cell-based; details: Homo sapiens, normoxic conditions, 72 h
Experimental: The human triple-negative breast cancer cell line (MDA-MB-231), colon cancer cell line (HCT-116), and lung cancer cell line (A549) used in this study were obtained from the American Type Culture Collection (ATCC). These cell lines were cultured as monolayers in Dulbecco’s Modified Eagle’s Medium (DMEM) supplemented with 10% FBS, 2 mM l-glutamine, 100 U/mL penicillin, and 100 µg/mL streptomycin sulfate. […] The cells were sub-cultured using trypsin/EDTA solution, counted with a hemocytometer, and plated on 96-well plates (5000 cells/well), allowing them to form a semi-confluent monolayer overnight. […]. DMSO (100 µL/well) was then added to dissolve the formazan crystals with shaking for 10 min, after which the absorb absorbance was read at 590 nm against no-cell blanks using a FLuo Star Optima microplate reader (BMG technologies, Ortenberg, Germany). Cell proliferation was calculated by comparing the OD values of the DMSO control wells with those of the samples, represented as % proliferation relative to the control.

hCA IV [8] = details: stopped-flow CO2 hydrase assay, mean of three assays; cited from earlier work
[9] = chemically induced hypoxia with CoCl2·6H2O, read-out: IC50 HCT-116 (Hypoxia)
[10] = normoxic conditions, read-out: IC50 HCT-116 (Normoxia)

| SMILES | H2S release half-life t/2 [1] | Time of peak H2S release [1] | H2S release in phosphate buffer [2] | IC50 (MDA-MB-231) | Ki (hCA XII [3]) | hCA II/hCA IX selectivity ratio (hCA IX [4]) | Ki (hCA I) | Ki (hCA II) | Ki (hCA IX [5]) | IC50 Normoxia / IC50 Hypoxia (HCT-116) | IC50 (HCT-116; [9]) | IC50 (HCT-116; [10]) | hCA II/hCA XII selectivity ratio (hCA XII [6]) | hCA II/hCA IV selectivity ratio (hCA IV [7]) | IC50 (A549) | Ki (hCA IV [8]) |
| --- | --- | --- | --- | --- | --- | --- | --- | --- | --- | --- | --- | --- | --- | --- | --- | --- |
| O=C(O)c1ccc(-c2cssc2=S)cc1 [Compound 3] | 3.1 min | 20 min | minimal H2S release |  |  |  |  |  |  |  |  |  |  |  |  |  |
| NS(=O)(=O)c1ccc(CCN(Cc2ccc(Br)cc2)C(=O)c2ccc(-c3cssc3=S)cc2)cc1 [Compound 22] |  |  |  | 6.31 ± 0.22 µM | 12.9 nM | 192 | 7.7 µM | 3.66 µM | 19.1 nM | 0.6 | 11.4 ± 0.22 µM | 6.62 ± 0.21 µM | 284 | 104 | 23.7 ± 1.61 µM |  |
| CSc1ccc(CN(CCc2ccc(S(N)(=O)=O)cc2)C(=O)c2ccc(-c3cssc3=S)cc2)cc1 [Compound 29] | 4.6 min |  |  | 3.25 ± 0.09 µM | 8.4 nM | 209 | 7.21 µM | 9.65 µM | 46.2 nM | 0.8 | 12.7 ± 0.25 µM | 10.1 ± 0.66 µM | 1148 | 29.3 | 60.9 ± 2.17 µM | 404 nM |
